Reference: patent publication US7781594B2, “5-(4-methanesulfonyl-phenyl)-thiazole derivatives for the treatment of acute and chronic inflammatory diseases” (Faes Farma, S.A., priority 2008, dated 2010)

Legend:
Format in all cases: cell-based, human
[1] = tested on: PBMC from healthy volunteers; experiment: Proliferative response of PBMC, 3H-thymidine incorporation; details: absence or presence of PHA, PHA plus IL-2, or anti-CD3 + anti-CD28, 4 days, FIGS. 11a and 11b
Procedure: Faced against a mitogen stimulation, lymphocytes suffer a blastogenesis and cellular differentiation process. The method used to quantify the cellular proliferation was the assay of the incorporation of ^3[H]-Thymidine to the DNA de novo synthesized, and the emission of betha-radiation from the cellular cultures dried extracts (to which the tritiated base was added) was detected before its ending and harvesting. In the different experiments performed to study the proliferation, the purified cellular preparations were incubated in 96 microwells plain bottom plates at concentrations of 5×10^4 cells/well (200 μl final volume), in the presence of different concentrations of various mitogens with triplicate repetitions and along 4 days of culture.
The response to a specific stimuli depended on the density and cell type studied, as well as of the culture time and of the mitogenic agent concentration. […]
PBMC was cultured during 4 days (50,000 cells per well) at 37° C. and 5% CO2 atmosphere (Cell incubator HERA Cell 150, Thermoscientific, Thermoelectron, 63505 Lagenselbold, GE) in complete culture medium. […] The DNA-incorporated radioactive was quantified by using a betha particles counter Wallac Oy.

[2] = tested on: TNF-alpha; experiment: TNF-alpha production by PBMC of healthy volunteers, Cytometric Bead Array
[3] = tested on: TNF-alpha; experiment: TNF-alpha production by PBMC from patients with rheumatoid arthritis, CBA
Procedure: CBA protocol was followed according to the manufacturer's instructions. The election of microparticles was performed following the summary of FIG. 1.
The acquisition on samples was performed with the BD FACS Array Bioanalyser System (FACSArray, Becton Dickinson, San José, Calif., USA) and the analysis of the results was completed with the software FCAP Array (Becton Dickinson) in a PC computer.
Briefly, the experimental protocol consisted of a plate pre-washing out with Wash Buffer. After decantation, the mixture of capture microparticles was re-suspended in the vortex. Standards and samples were added in the adequate dilution. […]
In another experiment, PBMC (5×10^4 cells per well) from 7 patients with rheumatoid arthritis were cultured in duplicate in 200 μl of complete medium supplemented with the highest solvent (10^−6 M), and 10^−6 M, 10^−7 M and 10^−8 M compound 12 and in the presence and absence of either LPS (10 μg/ml), or anti-CD3 (12.5 ng/ml) (Orthoclone OKT3, Orthopharmaceutical Corporation, Raritan N.J., USA)+anti-CD28 (⅓×10^5) (Clon 15E8, Menarini, Madrid, Spain), during 24 hours. Culture supernatants were frozen at −20° C. and the concentration of TNF-alpha quantified by BD FACS Array Bioanalyser by using CBA Flex Set (Becton Dickinson), specific for determining the concentration of that cytokine, following the manufacturer instructions.

Cc1nc(OC2CCCC2)c(-c2ccc(S(C)(=O)=O)cc2)s1 [Compound 12, 4-cyclopentyloxy-5-(4-methylsulfonyl-phenyl)-2-methyl-thiazole]
Effect on the proliferative response of PBMC [1]: did not significantly modify | Effect on TNF-alpha production by PBMC stimulated with LPS ([2]; 10^−6 M, 10^−7 M and 10^−8 M, statistically significant (p<0.05), FIG. 3): diminished TNF-alpha production | Effect on TNF-alpha secretion by PBMC, anti-CD3 and anti-CD28 stimulated or spontaneous ([2]; anti-CD3 + anti-CD28, or absence of exogenous stimuli): neither TNF-alpha secretion by PBMC stimulated with monoclonal antibodies anti-CD3 and anti-CD28 nor spontaneous one (as observed in the absence of exogenous stimuli) was modified | Effect on TNF-alpha production by PBMC, spontaneous or anti-CD3 and anti-CD28 stimulated [3]: neither inhibited the spontaneous TNF-alpha production nor the one obtained after stimulation with monoclonal antibodies anti-CD3 and anti-CD28 | Effect on TNF-alpha production in LPS-stimulated PBMC ([3]; 10^−6 M, p<0.05, FIG. 4): significantly inhibited
